Here are results for 4 compounds from patent US6552045B2 (Sepracor Inc., priority 1999, dated 2003).

Structures are written as SMILES.

For data set [1] the following is noted: co-administration with ketoconazole; inhibition of the metabolic elimination of cisapride; cited from earlier work.
Data set [2] addresses T1, 5-HT3 receptor subtypes derived from N1E-115 cells (Mus musculus, UniProt P23979).
T1 construct: 5-HT3 receptor subtypes derived from N1E-115 cells; host or cells: N1E-115 cells
T1 sequence (P23979 24-489): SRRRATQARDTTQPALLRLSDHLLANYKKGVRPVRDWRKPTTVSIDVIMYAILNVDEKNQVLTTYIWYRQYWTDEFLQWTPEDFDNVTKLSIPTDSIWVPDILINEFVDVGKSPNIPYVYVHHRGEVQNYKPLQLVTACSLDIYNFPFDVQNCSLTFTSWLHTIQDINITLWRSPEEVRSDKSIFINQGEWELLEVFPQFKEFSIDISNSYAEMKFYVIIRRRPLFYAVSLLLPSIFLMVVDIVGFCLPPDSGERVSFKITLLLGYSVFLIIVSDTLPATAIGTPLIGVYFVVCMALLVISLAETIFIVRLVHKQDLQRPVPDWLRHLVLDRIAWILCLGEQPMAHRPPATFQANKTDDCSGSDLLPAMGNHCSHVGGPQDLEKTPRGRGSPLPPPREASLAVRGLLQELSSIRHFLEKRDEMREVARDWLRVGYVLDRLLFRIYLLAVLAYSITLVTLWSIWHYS
Nature of the data set: Receptor binding, 5-HT3 receptor (radioligand binding, Cerep). As to conditions: ratio of IC50 at 5-HT3 to IC50 at 5-HT4. The method, then: Receptor Binding 5-HT3 Receptor
Following incubation with the appropriate ligands, the preparations were rapidly filtered under vacuum through GF/B glass fiber filters and washed with ice-old buffer using a Brandel or Packard cell harvester.
Specific radioligand binding to the receptor was defined as the difference between total binding and nonspecific binding determined in the presence of an excess of unlabeled ligand. Results were expressed as a percent inhibition of specific binding obtained in the presence of the compounds.

For `COc1cc(N)c(Cl)cc1C(=O)N[C@H]1CCN(CCCOc2ccc(F)cc2)C[C@H]1OC` (racemic) [(±) Cisapride, cis-4-amino-5-chloro-N-[1-[3-(4-fluorophenoxy)propyl]-3-methoxy-4-piperidinyl]-2-methoxybenzamide], in data set [1], the “increase of the steady-state plasma levels” value was 8 fold.

With `COc1cc(N)c(Cl)cc1C(=O)NC1CCNCC1OC` (single isomer, unassigned; (+)) [(+) Norcisapride], the “5-HT3/5-HT4 Ratio” value in data set [2] amounted to 0.014.

For the compound `COc1cc(N)c(Cl)cc1C(=O)NC1CCNCC1OC` (racemic) [(±) Norcisapride, 4-amino-5-chloro-N-(3-methoxy-4-piperidinyl)-2-methoxybenzamide], the “5-HT3/5-HT4 Ratio” value in data set [2] was determined as 0.012.

For `COc1cc(N)c(Cl)cc1C(=O)NC1CCNCC1OC` (single isomer, unassigned; (-)) [(−) Norcisapride], the “5-HT3/5-HT4 Ratio” value in data set [2] was 0.023.
